From patent publication US9481667B2, “Salts and solid forms of isoquinolinones and composition comprising and methods of using the same” (Infinity Pharmaceuticals, Inc., priority 2013, dated 2016)
Converted amounts (≈) assume the structure as drawn. Counter-ions that a name gives are not always drawn.

Assays:
Format in all cases: physicochemical
[1] = Storage at 40° C./75% RH (solid-state stability); settings: for Storage 40° C./75% RH for 1 week: HPLC Purity / Storage 40° C./75% RH for 1 week: XRPD (D8): 0.5 g scale-up salts; for Stability on storage at 40° C./75% RH: 1 week, solid form by XRPD
Protocol: The crystalline solids were filtered, dried at ambient conditions, and stored at 40° C./75% RH for 1 week and analyzed by ^1H NMR/IC.
Samples from the screen using amorphous free base Compound 1 were analysed by ^1H-NMR and DSC, and re-analysis by XRPD was also carried out after drying at 50° C./vacuum and storage at 40° C./75% RH (the same sample was dried and stored at elevated humidity).

Dissolution = settings: in 15 min at pH 1.2
Protocol: The dissolution rate for the hydrate was about 80% in 15 min at pH 1.2 and about 20% in 60 min at pH 2.5. The dissolution rate of the bis-sulfuric acid salt was 100% in 15 min at both pH 1.2 and pH 2.5.

[2] = Thermodynamic aqueous solubility
[3] = Gravimetric vapour sorption (GVS); settings: for XRPD post GVS (C2): 0.5 g scale-up salts; for GVS Single cycle: hygroscopicity, 0-90% RH; for GVS: moisture content reached on uptake at 40-50% RH: remains stable on sorption up to 90% RH and on desorption down to 10% RH
Protocol: Sorption isotherms were obtained using a Hiden IGASorp moisture sorption analyser, controlled by CFRSorp software. The sample temperature was maintained at 25° C. by a Huber re-circulating water bath. The humidity was controlled by mixing streams of dry and wet nitrogen, with a total flow rate of 250 ml/min. The relative humidity (RH) was measured by a calibrated Vaisala RH probe (dynamic range of 0-95% RH), located near the sample. The weight change, (mass relaxation) of the sample as a function of % RH was constantly monitored by the microbalance (accuracy ±0.001 mg). Typically 10-20 mg of sample was placed in a tared mesh stainless steel basket under ambient conditions. The sample was loaded and unloaded at 40% RH and 25° C. (typical room conditions). A moisture sorption isotherm was performed as outlined below (2 scans giving 1 complete cycle). The standard isotherm was performed at 25° C. at 10% RH intervals over a 0-90% RH range.
The software uses a least squares minimisation procedure together with a model of the mass relaxation, to predict an asymptotic value. The measured mass relaxation value must be within 5% of that predicted by the software, before the next % RH value is selected. The minimum equilibration time was set to 1 hour and the maximum to 4 hours. The sample was recovered after completion of the isotherm and re-analysed by XRPD.

[4] = Density and flowability (Hausner ratio, Carr index)
Excerpt: The Hausner ratio and the Carr index are correlated to the flowability of a powder or granular material. […] The flowability of both salts are acceptable for manufacturing.

[5] = Polymorph screen: maturation (temperature cycling RT/50° C.) in solvents
Protocol: One of 21 solvents was added to each vial in a number of aliquots (up to 30 volumes), with shaking. All the samples were then placed under maturation between RT to 50° C. (4 hours at each temperature) for 3 days. After maturation the samples were analysed by XRPD. Clear solutions were cooled to −20° C. (freezer). If no precipitation occurred samples were evaporated at RT.
Samples were placed under maturation between RT-50° C. (4 hours cycle) for 3 days. After maturation the samples were analyzed by XRPD. Clear solutions were then cooled to −20° C. (freezer). If no precipitation occurred, samples were evaporated at RT.
Bis-Sulfuric acid salt Form 1 of Compound 1 (ca. 35 mg) was weighed into vials. The corresponding solvents and solvent mixtures were added in portions of (a total of) 5, 10, 20, and 30 volumes at 50° C., with shaking, aiming for clear solutions. After each addition, the vials were allowed to shake for 20 minutes, after which observations were made. Solutions were allowed to evaporate, whereas slurries were set for 8 hour temperature cycling maturation, between RT and 50° C., for 5 days.
The oils obtained by solvent evaporation were used for the maturation screen. Anhydrous solvents (5 volumes; 100 μL) were used in order to minimise the amount of water present. Any solutions were allowed to slowly evaporate, whereas slurries were set for 8 hour temperature cycling maturation, between RT and 50° C. After 24 hours, most oils had not mixed with the solvents, and these were scratched with a spatula, producing slurries. These were matured for a further 24 hours before performing XRPD analysis.
Amorphous free base Compound 1 (ca. 25 mg) was weighed into vials. The selected solvents and solvent mixtures (5 to 20 volumes) were added with stirring. Any solutions were allowed to slowly evaporate, whereas slurries were set for 8 hour temperature cycling maturation, between RT and 50° C., for 2 days.
Crystals were ground in order to analyse them by XRPD. Suspensions were set for temperature cycling for a total of five days after which time XRPD analysis was carried out. […] Similar to the screen in Example 20, these XRPD patterns show slight differences (FIG. 37). However, solids from both screens obtained from the same solvent show a matching XRPD pattern, also supporting that this is a series of isostructural solvates. […]

[6] = 2-Week comparative stability studies; settings: 2 weeks; 5° C. (closed); ambient (closed); ambient (closed-exposed to light); ambient (open); 60° C. (closed); RT/75% RH (open); 40° C./75% RH (open)
Protocol: (closed); (ii) ambient (closed); (iii) ambient (closed-exposed to light); (iv) ambient (open); (v) 60° C. (closed); (vi) RT/75% RH (open); and (vii) 40° C./75% RH (open).

[7] = Storage at 25° C./93% RH (solid-state stability); settings: for Storage 25° C./93% RH for 1 week: HPLC Purity / Storage 25° C./93% RH for 1 week: XRPD (D8): 0.5 g scale-up salts; for Stability on storage at 25° C./93% RH: 1 week, solid form by XRPD
[8] = Stability of Hydrate Form 2 of free base: maturation in water or acetic acid:water; settings: 40 hours
Protocol: Both solids obtained from maturation at 25° C.

[9] = Solubility assessment using free base Hydrate Form 2
Protocol: The best solvent systems (clear solutions) were methanol:anisole 1:1 and DMSO (10 volumes, at RT), dioxane (10 volumes, 50° C.), chloroform (20 volumes, RT). […]

[10] = Stability of Hydrate Form 2 of free base: maturation in water or acetic acid:water; settings: 40 hours; remark: listed apart in the source
[11] = listed as Compound 1 Free Base Form 2

COc1cc(-c2cccc3cc([C@H](C)Nc4nc(N)ncc4C#N)n(-c4ccccc4)c(=O)c23)ccn1 [Form 1 of the maleic acid salt of Compound 1] [(S)-2-amino-4-((1-(8-(2-methoxypyridin-4-yl)-1-oxo-2-phenyl-1,2-dihydroisoquinolin-3-yl)ethyl)amino)pyrimidine-5-carbonitrile]
Storage 40° C./75% RH for 1 week: HPLC Purity [1]: HPLC Purity: 99.8% Peak Area | Storage 40° C./75% RH for 1 week: XRPD (D8) [1]: XRPD (D8): Unchanged | Stability on storage at 40° C./75% RH [1]: stable | Stability on storage at 40° C./75% RH ([1]; listed as mono-maleic acid salt): stable | dissolution rate (Dissolution; listed as Form 1 of mono-maleic acid salt): 100% | XRPD (C2) post Aqueous solubility ([2]; solid after thermodynamic aqueous solubility): FB pattern 2 | XRPD post GVS (C2) [3]: Unchanged | GVS Single cycle ([3]; 25° C.): Slightly hygroscopic | Flowability compared to the hydrate [4]: improved flowability | Salt stability on maturation in solvents ([5]; RT to 50° C., 3 days, Ethanol, 2-Propanol, 1-Propanol, Acetone, THF, 2-Propanol/Water (90/10 v/v), EtOH/Water (90/10 v/v), Acetic acid/Water (25/75 v/v): free base recrystallized): tendency to dissociate | Change of water content (KF) [6]: No significant change of water content | Storage 25° C./93% RH for 1 week: HPLC Purity [7]: HPLC Purity: 99.8% Peak Area | Storage 25° C./93% RH for 1 week: XRPD (D8) [7]: XRPD (D8): Unchanged

COc1cc(-c2cccc3cc([C@H](C)Nc4nc(N)ncc4C#N)n(-c4ccccc4)c(=O)c23)ccn1 [Form 1 of the sulfuric acid salt of Compound 1] [(S)-2-amino-4-((1-(8-(2-methoxypyridin-4-yl)-1-oxo-2-phenyl-1,2-dihydroisoquinolin-3-yl)ethyl)amino)pyrimidine-5-carbonitrile]
Storage 40° C./75% RH for 1 week: HPLC Purity [1]: HPLC Purity: Unchanged | Storage 40° C./75% RH for 1 week: XRPD (D8) [1]: XRPD (D8): Unchanged | Stability on storage at 40° C./75% RH [1]: stable | Stability on storage at 40° C./75% RH ([1]; listed as bis-sulfuric acid salts): stable | dissolution rate (Dissolution; listed as Form 1 of bis-sulfuric acid salt monohydrate): 100% | XRPD post GVS (C2) [3]: Unchanged | GVS Single cycle ([3]; 25° C.): Slightly hygroscopic | Flowability compared to the hydrate [4]: improved flowability | Solid form after maturation of slurries ([5]; slurries in 30 volumes of solvent, RT/50° C. cycling, five days (all experiments other than acetic acid/water, methanol, ethanol/water)): did not show any changes | Change of water content (KF) [6]: No significant change of water content | Storage 25° C./93% RH for 1 week: HPLC Purity [7]: HPLC Purity: Unchanged | Storage 25° C./93% RH for 1 week: XRPD (D8) [7]: XRPD (D8): Unchanged

COc1cc(-c2cccc3cc([C@H](C)Nc4nc(N)ncc4C#N)n(-c4ccccc4)c(=O)c23)ccn1 [Form 2 of the free base of Compound 1, (S)-2-amino-4-((1-(8-(2-methoxypyridin-4-yl)-1-oxo-2-phenyl-1,2-dihydroisoquinolin-3-yl)ethyl)amino)pyrimidine-5-carbonitrile]
Stability on storage at 40° C./75% RH [1]: stable | Stability on storage at 40° C./75% RH [1, 11]: Very slight changes after 1 week | Stability on storage at 40° C./75% RH ([1]; listed as Free base Form 2): mainly the same pattern with a few differences | Solid form (XRPD) after maturation ([8]; acetic acid:water 1:3, 25° C.): stable | Solid form (XRPD) after maturation ([8]; acetic acid:water 1:3, 25° C., listed as Hydrate Form 2 of free base of Compound 1): unchanged Form 2 | Solid form (XRPD) after maturation ([8]; pure water, 25° C.): stable | Solid form (XRPD) after maturation ([8]; pure water, 25° C., listed as Hydrate Form 2 of free base of Compound 1): unchanged Form 2 | dissolution rate (Dissolution; listed as Form 2 of free base hydrate): about 80% | solubility thermodynamic ([2]; aqueous, water, thermodynamic from solid, at pH 6.47): 5 µg/mL (≈ 10.2 µM) | GVS: moisture uptake on loading between 40-50% RH [3]: 1 % w/w | GVS: moisture on loading ([3]; loaded at 40% RH, 25° C., listed as Compound 1 Free Base Form 2): 4.7% w/w moisture on loading. Immediate | GVS: moisture content reached on uptake at 40-50% RH [3, 11]: moisture uptake (40-50% RH up to 5.7% w/w) | GVS: moisture content reached on uptake at 40-50% RH ([3]; listed as Free base Form 2): 5.7 % w/w | solvent volumes giving a clear solution ([9]; 2-methyltetrahydrofuran): 50 volumes | solvent volumes giving a clear solution ([9]; DCM): 100 volumes | solvent volumes giving a clear solution ([9]; DCM:methanol 1:1): 100 volumes | solvent volumes giving a clear solution ([9]; DME): 100 volumes | solvent volumes giving a clear solution ([9]; DMSO, at RT): 10 volumes | solvent volumes giving a clear solution ([9]; THF): 100 volumes | solvent volumes giving a clear solution ([9]; THF:5% water): 50 volumes | solvent volumes giving a clear solution ([9]; acetonitrile/5% water): 100 volumes | solvent volumes giving a clear solution ([9]; chloroform, RT): 20 volumes | solvent volumes giving a clear solution ([9]; dioxane, 50° C.): 10 volumes | solvent volumes giving a clear solution ([9]; ethanol:anisole): 50 volumes | solvent volumes giving a clear solution ([9]; methanol): 100 volumes | solvent volumes giving a clear solution ([9]; methanol:anisole 1:1, at RT): 10 volumes | Change of water content (KF) [6]: No significant change of water content | Solid form (XRPD) after maturation ([10]; acetic acid:water 1:3, 90° C.): some evidence of the acetic acid solvate Form 6 mixed with a majority of Form 2 | Solid form (XRPD) after maturation ([10]; pure water, 90° C., listed as Hydrate Form 2 of free base of Compound 1): Form 2 | Stability on storage at 25° C./93% RH [7]: stable | Stability on storage at 25° C./93% RH [7, 11]: Very slight changes after 1 week | Stability on storage at 25° C./93% RH ([7]; listed as Free base Form 2): mainly the same pattern with a few differences
